These results are taken from patent publication US9464301B2, “Increased isoprene production using the archaeal lower mevalonate pathway” (Danisco US Inc., priority 2008, dated 2016).

“Also recorded” adds a separate entry of the source.

The conditions of data set [1]: about 1 atmosphere and about 60° F.; cited from earlier work.
In another data set the target is T1, yeast mevalonate kinase (Saccharomyces cerevisiae, UniProt P07277).
T1 construct: 10xHis tag with factor Xa site (pET-16b leader); made in house; host or cells: E. coli BL21(DE3) pLysS
T1 sequence (P07277 1-443): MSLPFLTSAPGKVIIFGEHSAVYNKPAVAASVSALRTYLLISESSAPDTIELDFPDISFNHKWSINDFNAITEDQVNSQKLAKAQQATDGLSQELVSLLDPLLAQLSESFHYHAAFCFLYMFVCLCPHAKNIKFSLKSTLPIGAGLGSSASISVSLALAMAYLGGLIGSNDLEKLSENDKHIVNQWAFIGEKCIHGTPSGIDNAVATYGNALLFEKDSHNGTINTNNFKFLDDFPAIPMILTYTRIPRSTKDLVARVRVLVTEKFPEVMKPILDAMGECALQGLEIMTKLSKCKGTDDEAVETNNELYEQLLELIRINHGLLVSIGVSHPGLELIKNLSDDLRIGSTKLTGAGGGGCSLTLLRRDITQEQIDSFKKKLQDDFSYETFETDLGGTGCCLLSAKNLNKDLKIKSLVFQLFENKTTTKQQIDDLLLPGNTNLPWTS
It is filed as biochemical. The settings on record: for KMapp of yeast mevalonate kinase: other substrate saturating at 5 mM, 30° C.

In the next data set the target is human MVK polypeptide (Homo sapiens, UniProt Q03426). The settings on record: reported; cited from earlier work.
For the next data set, the system named is M. mazei MVK. As to the kind of experiment: Inhibition of MVK by diphosphomevalonate and IP, two enzyme system. The settings on record: 1 μM MVK; for Inhibition of M. mazei MVK by isopentenyl monophosphate: 100 μM. It is filed as biochemical, Methanosarcina mazei. An excerpt: This experiment investigates the inhibitory effect of diphosphomevalonate and […] (IP) on MVK activity using MVK enzymes from S. pneumoniae, yeast, and M. mazei, respectively. […] All chemical reagents were purchased from Sigma unless otherwise specified.

A further data set concerns the target T2, yeast MVK (Saccharomyces cerevisiae, UniProt P07277).
T2 construct: 10xHis tag with factor Xa site (pET-16b leader); made in house; host or cells: E. coli BL21(DE3) pLysS
T2 sequence (P07277 1-443): T1 sequence (P07277 1-443)
As to the kind of experiment: Inhibition of MVK by diphosphomevalonate, two enzyme system (MVK plus PMK). The conditions noted are these: 1 μM MVK, 1 μM PMK, diphosphomevalonate formed in situ. It is filed as biochemical. As to the method:
(§1) This experiment investigates the inhibitory effect of diphosphomevalonate and […] (IP) on MVK activity using MVK enzymes from S. pneumoniae, yeast, and M. mazei, respectively. […] All reactions were performed in 96-well plates and were monitored by absorbance at 386 nm on a Molecular Devices Spectramax 190 UV-Vis 96-well spectrophotometer. […] All chemical reagents were purchased from Sigma unless otherwise specified. Yeast and M. mazei MVK were obtained as described above and S. pneumoniae MVK and yeast phosphomevalonate kinase (PMK) were obtained as previously described (Andreassi et al., Biochemistry, 43:16461-66, 2004) from pDW02 in pET200D MVK (FIG. 142).

The subject of another data set is S. pneumoniae MVK. The description is as above. It is filed as biochemical, Streptococcus pneumoniae. The conditions noted are these: 1 μM MVK, 1 μM PMK, diphosphomevalonate formed in situ. How it is done:
as §1

Data set [2] concerns the target T3, MVK from the archaeon Methanococcus jannaschii (Methanocaldococcus jannaschii, UniProt Q58487).
T3 sequence (Q58487 1-312): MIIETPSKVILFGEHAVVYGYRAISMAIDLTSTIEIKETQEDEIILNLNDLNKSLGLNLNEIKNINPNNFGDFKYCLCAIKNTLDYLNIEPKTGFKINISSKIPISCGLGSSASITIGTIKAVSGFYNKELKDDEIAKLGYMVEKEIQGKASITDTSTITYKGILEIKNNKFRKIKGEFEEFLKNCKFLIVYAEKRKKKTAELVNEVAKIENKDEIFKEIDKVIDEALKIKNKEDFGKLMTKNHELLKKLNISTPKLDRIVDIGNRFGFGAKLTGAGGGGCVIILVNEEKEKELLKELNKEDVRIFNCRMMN
The settings on record: Huang et al. 1999; cited from earlier work.

Data set [3] is described as follows: Flammability modeling (CAFT) and testing of isoprene. It is filed as physicochemical. From the text:
Thus, computer modeling and experimental testing were used to determine the flammability limits of isoprene (such as isoprene in the presence of O2, N2, CO2, or any combination of two or more of the foregoing gases) in order to ensure process safety. The flammability envelope is characterized by the lower flammability limit (LFL), the upper flammability limit (UFL), the limiting oxygen concentration (LOC), and the limiting temperature. For a system to be flammable, a minimum amount of fuel (such as isoprene) must be in the presence of a minimum amount of oxidant, typically oxygen. The LFL is the minimum amount of isoprene that must be present to sustain burning, while the UFL is the maximum amount of isoprene that can be present. Above this limit, the mixture is fuel rich and the fraction of oxygen is too low to have a flammable mixture. The LOC indicates the minimum fraction of oxygen that must also be present to have a flammable mixture. […]
Calculated adiabatic flame temperatures (CAFT) along with a selected limit flame temperature for combustion propagation were used to determine the flammability envelope for isoprene. […]
The igniter was comprised of a 1.5 ohm nicrome coil and an AC voltage source on a timer circuit. Using an oscilloscope, it was determined that 34.4 VAC were delivered to the igniter for 3.2 seconds. […]

human MVK polypeptide, sequence (Q03426 whole entry): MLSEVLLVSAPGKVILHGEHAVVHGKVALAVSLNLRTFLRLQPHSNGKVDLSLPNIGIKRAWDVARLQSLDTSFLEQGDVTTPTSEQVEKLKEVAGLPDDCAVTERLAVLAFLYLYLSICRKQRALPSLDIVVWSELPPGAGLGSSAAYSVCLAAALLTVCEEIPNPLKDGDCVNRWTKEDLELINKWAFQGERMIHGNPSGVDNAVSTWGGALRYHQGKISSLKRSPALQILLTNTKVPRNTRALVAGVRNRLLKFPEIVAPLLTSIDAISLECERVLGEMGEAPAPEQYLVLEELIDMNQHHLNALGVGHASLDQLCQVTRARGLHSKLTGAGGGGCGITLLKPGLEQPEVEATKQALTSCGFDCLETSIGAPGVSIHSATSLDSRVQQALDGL

With `CCO` [ethanol], in data set [1], the LFL result is on record as “about 3.3 vol %” and the LOC result was “about 8.7 vol %”.
As for `Nc1ncnc2c1ncn2[C@@H]1O[C@H](COP(=O)(O)OP(=O)(O)OP(=O)(O)O)[C@@H](O)[C@H]1O` [ATP, adenosine triphosphate], on yeast mevalonate kinase, the “KMapp of yeast mevalonate kinase” value came to 714 ± 49 µM.
With `CC(C)=CCC/C(C)=C/CC/C(C)=C/CC/C(C)=C/COP(=O)(O)OP(=O)(O)O` [GGPP, geranylgeranyl diphosphate], at human MVK polypeptide, the “Ki for human MVK polypeptide” value is “nanomolar range”.
As to `C=C(C)CCOP(=O)(O)O` [IP, isopentenyl monophosphate], in the data set on M. mazei MVK, the “Inhibition of M. mazei MVK by isopentenyl monophosphate” value is “not inhibited”.
On to `CC(O)(CCO)CC(=O)O` (stereo not shown) [mevalonate], for which the “KMapp of yeast mevalonate kinase” value at yeast mevalonate kinase amounted to 131 ± 8 µM.
Regarding `C[C@@](O)(CCOP(=O)(O)OP(=O)(O)O)CC(=O)O` [diphosphomevalonate], in the data set on M. mazei MVK (PMK, diphosphomevalonate formed in situ), the “Inhibition of M. mazei MVK by diphosphomevalonate” value was “proceed to completion; also recorded: Neither yeast MVK nor M. mazei MVK was inhibited”. In addition, the “Inhibition of yeast MVK by diphosphomevalonate” value at yeast MVK is “not inhibited; also recorded: Neither yeast MVK nor M. mazei MVK was inhibited”. In addition, the “Inhibition of S. pneumoniae MVK by diphosphomevalonate” value with S. pneumoniae MVK is listed as “inhibited”.
For the molecule `CC(C)=CCC/C(C)=C/COP(=O)(O)OP(=O)(O)O` [GPP, geranyl diphosphate], at human MVK polypeptide, the “Ki for human MVK polypeptide” value is on record as “nanomolar range”. In addition, in data set [2], the “Feedback inhibition of M. jannaschii MVK” value is “feedback inhibited”.
`C=CC(=C)C` [isoprene, 2-methyl-1,3-butadiene]: the “limiting oxygen concentration (LOC)” value in data set [3] (isoprene, O2, N2, and CO2 mixture at 40° C. and 1 atmosphere) was 9.5 vol %. The limiting temperature result in data set [3] (lowest temperature at which combustion can propagate) was “about −54 °C”.
For the molecule `C=C(C)CCOP(=O)(O)OP(=O)(O)O` [IPP, isopentenyl diphosphate], in the data set on M. mazei MVK, the “Inhibition of M. mazei MVK by isopentenyl monophosphate” value was “not inhibited”.
For the molecule `CC(C)=CCC/C(C)=C/CC/C(C)=C/CO[P@@](=O)(O)OP(=O)(O)O` (stereo in doubt) [FPP, farnesyl diphosphate], the “Ki for human MVK polypeptide” value on human MVK polypeptide is “nanomolar range”.

B1: yeast mevalonate kinase: mevalonate kinase from Saccharomyces cerevisiae, expressed in E. coli and purified to >95% (protein, UniProt P07277 1-443, looked up)
Mevalonate kinase: T1 sequence (P07277 1-443)
As to B1, the “turnover number (kcat)” value with yeast mevalonate kinase (yeast mevalonate kinase) amounted to 38 ± 5 s⁻¹.
